Positions of bridges follow the written chain, without caps; N, C: chain ends. Non-standard residues stand in square brackets, D forms with d. Residues, ends and D or L forms follow the SMILES beside them. Chains are numbered I, II in the order given. Nle = CCCC[C@H](N)C(=O)O; Nva = CCC[C@H](N)C(=O)O
Columns and labels:
P. aeruginosa ATCC 27853 [1] = assay type: cell-based; details: ATCC 27853; for Fractional inhibitory concentration of antibiotic, Genta combination: second number in parenthesis
Description: (§1) The synergism between peptides with conventional antibiotics was evaluated using checkerboard assays. For a comparison polymyxin B (PMB) was also tested against each antibiotic. From their stock solutions, two-fold dilutions of each antibiotic and peptide to 1× MIC were prepared in MHB. 50 μl of each peptide concentration was added into the wells of a 96-well polystyrene plates (SPL Life Sciences Co. Ltd, Korea) in a horizontal orientation and the same volume of each antibiotic concentration were then added in a vertical orientation. Bacterial suspensions were prepared in MHB to yield final cell density of ~10^6 CFU/ml and 100 μl of bacterial suspension was mixed with each peptide-antibiotic combinations. This procedure was repeated for wells containing 200 μl of peptide alone and 200 μl of antibiotic alone in various concentrations. The positive and negative controls contained 200 μl of inoculum and MHB alone respectively. The plates were incubated at 37 °C for 24 hours and the optical density at 600 nm (OD600) was monitored as before. Fractional inhibitory concentration index (FICI) for all antibiotic- peptide combinations was calculated through the summation of (MIC of peptide in the combination/ MIC of peptide alone) and (MIC of antibiotics in combination/MIC of antibiotic alone). The experiments were performed in two independent duplicates and the combinations that gave the lowest FICI values was reported.

P. aeruginosa DR4877/07 = assay type: cell-based; details: for Fractional inhibitory concentration of peptide/PMB, combination with Chloarm / Fractional inhibitory concentration of peptide/PMB, combination with Erythro / Fractional inhibitory concentration of peptide/PMB, combination with Levo / Fractional inhibitory concentration of peptide/PMB, combination with Tobra: first number in parenthesis; for Fractional inhibitory concentration of antibiotic, Chloarm combination / Fractional inhibitory concentration of antibiotic, Erythro combination / Fractional inhibitory concentration of antibiotic, Levo combination / Fractional inhibitory concentration of antibiotic, Tobra combination: second number in parenthesis
Description: as §1

P. aeruginosa ATCC 27853 [2] = experiment: microbe, parasite or virus in culture; assay type: cell-based; details: ATCC 27853, 24 h
Description: (§2) MIC of each peptide was determined using the microdilution method in a 96 well microtitre plates (SPL Life Sciences Co., Ltd, Korea). Two-fold serial dilutions of each peptide in Mueller-Hinton Broth (MHB) was prepared from a 1 mg/ml stock solution of the peptide in the same broth, to obtain a final concentration in the range of 0.0976–50 μg/ml in each well. Bacterial suspensions (P. aeruginosa ATCC 27853, P. aeruginosa 4877, P. aeruginosa 23155, K. pneumoniae ATCC 10031 and K. pneumoniae 4299) were prepared by suspending the overnight cultured bacteria in saline and adjusting the inoculum to ~10^8 colony forming units (CFU) per ml. A further 150-fold dilution was then prepared in MHB to achieve a final cell density of 10^5–10^6 CFU/ml. In each well, 100 μl of inoculum was mixed with the equal volume of peptides at their 2× concentration. Positive and negative controls contained 200 μl of inoculum (without any peptide) and broth alone (no peptide/inoculum) respectively. Another negative control in which MHB containing 200 μl of peptide alone in its highest concentration tested (50 μg/ml) was also included to ensure that the optical density measured in the test wells was not due to turbidity of the peptides in solution. The 96 well polystyrene plates were then incubated at 37 °C for 24 h and the optical density at 600 nm (OD600) was measured every 30 min continuously using a TECAN microplate reader (TECAN Infinite 200, Austria). All the experiments were performed in two independent duplicates and the MIC was determined as the lowest peptide concentration in which no visible growth was observed.

P. aeruginosa ATCC 9027 = experiment: Outer membrane permeability assay (NPN); assay type: cell-based; details: no unit in table; Fig. S5 axis [Peptide], μM; 10 μM NPN, 5 mM HEPES pH 7.4, ex 355/em 405 nm; average of two titrations; read-out: PC50 (peptide concentration for half-maximal NPN intensity, OM permeability)
Description: The ability of each peptide to permeabilize the OM of Gram-negative organisms was determined using the hydrophobic fluorescent probe 1-N-phenylnaphthylamine (NPN) as previously reported. P. aeruginosa ATCC 9027 cells from an overnight MHB culture were harvested after centrifuging at 3000 rpm for 10 minutes. The pellet was washed twice, suspended in 5 mM HEPES (N- 2-hydroxyethylpiperazine-N’-2 ethanesulfonic acid) buffer (pH 7.4) and adjusted to an OD600 of 0.200. A suspension containing 600 μl of bacteria cells and 1 μl of a concentrated stock solution of NPN was mixed into a 10 mm stirred quartz cuvette so that the final concentration of the probe remained 10 μM. Aliquots containing 1 μl of each peptide in various concentrations (100, 50, 25, 15, 10, 5, 2.5 and 1 μg/ml) were added upon NPN dye stabilization. The fluorescence intensity was monitored using a Quanta Master spectrophotometer with a constant slit width of 0.5 nm, excitation and emission wavelengths set at 355 nm and 405 nm respectively. The peptide concentration required for half-maximal intensity (PC50) was determined by sigmoidal curve fitting using Graphpad Prism software. The experimental data is average of two independent titration experiments.

[3] = test system: LPS (E. coli serotype 055:B5); experiment: BODIPY TR cadaverine (BC) displacement assay with LPS; assay type: binding; details: no unit in table; ED50 values in μM; 5 mM HEPES pH 7.4; duplicates; read-out: BC50 (LPS binding)
Description: To investigate the interaction of B2088 with LPS, we performed the BODIPY TR cadaverine (BC) displacement assay reported by Wood et al.[22]. The probe binds to the lipid A part of the LPS with moderate affinity and can be displaced by putative LPS-binding molecules. The method was used to probe the affinity of polycationic molecules and LPS binding proteins. First, we determined the affinity of polymyxin B (PMB), a lipopeptide cyclic antibiotic which has a high affinity for LPS. […] Figure 1a,b show the concentration-dependent displacement of LPS/lipid A-bound BC upon addition of B2088. […] To confirm the importance of branching, we determined the BC50 for a linear retrodimer having the amino acid sequence, […] (Fig. 1d). The determined value was 2-fold higher (3.9 ± 0.1 μM) than that of B2088, confirming a weaker affinity of the linear peptide.
The BC displacement assay was used to determine the ability of each peptide to bind to LPS. The florescent probe, BODIPY TR cadaverine (BC) was purchased from Molecular Probes/ Invitrogen (USA). A stock solution containing 1 mg/ml of LPS (E. coli serotype 055:B5) was prepared in dimethyl sulfoxide (DMSO) and another stock solution containing 1 mg/ml of BC dye was prepared in 5 mM HEPES buffer (pH 7.4). The optimum saturation concentration of BC:LPS ratio was standardized following the protocol provided by Wood et al. (22). From the BC stock, 240 μl was mixed with 500 μl from the LPS stock solution in 5 mM HEPES buffer (pH 7.4) to prepare 20 ml of BC:LPS mixture. Two-fold serial dilutions of each peptide in 5 mM HEPES buffer (pH 7.4) was prepared from their 1 mg/ml stock solutions to obtain a final range of 0.02–25.6 μM. The BC:LPS mixture was added to 100 μl of each peptide congener in a 1:1 ratio in each well of a 96-well black Costar™ polystyrene microtitre plate (Corning Incorporated, NY, USA). The maximum fluorescence intensity (Fmax) was determined using a mixture containing 100 μl PMB (50 μg/ml) and 100 μl BC:LPS solution, as PMB is considered the ‘gold standard’ for LPS-sequestering agents. The minimum fluorescence intensity (F0) was measured using 200 μl of BC:LPS mixture to determine the background noise for this experiment. Fluorescence measurements for each peptide (F) were determined using a microplate reader (Model: TECAN Infinite 200, Austria) with excitation and emission wavelengths set at 580 nm and 620 nm respectively. The percentage of BC displacement was then calculated using the formula: […]
The experiments were performed in duplicates and the effective concentration required for 50% displacement of BC dye (ED50) from LPS with respect to PMB was determined by curve fitting using Graphpad Prism (CA, USA). A higher ED50 value for the peptide indicates a lower affinity for LPS.

K. pneumoniae ATCC10031 = assay type: cell-based; details: ATCC10031, 24 h
Description: as §2

P. aeruginosa 23155 = assay type: cell-based; details: 23155, 24 h
Description: as §2

K. pneumonia 4299 = experiment: microbe, parasite or virus in culture; assay type: cell-based, K. pneumoniae; details: 24 h
Description: as §2

| Structure (SMILES) | Fractional inhibitory concentration of antibiotic, Genta combination (P. aeruginosa ATCC 27853 [1]) | Fractional inhibitory concentration of peptide/PMB, combination with Chloarm (P. aeruginosa DR4877/07) | Fractional inhibitory concentration of peptide/PMB, combination with Erythro (P. aeruginosa DR4877/07) | Fractional inhibitory concentration of peptide/PMB, combination with Levo (P. aeruginosa DR4877/07) | Fractional inhibitory concentration of peptide/PMB, combination with Tobra (P. aeruginosa DR4877/07) | Fractional inhibitory concentration of antibiotic, Chloarm combination (P. aeruginosa DR4877/07) | Fractional inhibitory concentration of antibiotic, Erythro combination (P. aeruginosa DR4877/07) | Fractional inhibitory concentration of antibiotic, Levo combination (P. aeruginosa DR4877/07) | Fractional inhibitory concentration of antibiotic, Tobra combination (P. aeruginosa DR4877/07) | Minimum Inhibitory Concentration against P. aeruginosa ATCC 27853 (P. aeruginosa ATCC 27853 [2]) | EC50 (P. aeruginosa ATCC 9027) | EC50 [3] | Minimum Inhibitory Concentration against K. pneumoniae ATCC10031 (K. pneumoniae ATCC10031) | Minimum Inhibitory Concentration against P. aeruginosa 23155 (P. aeruginosa 23155) | Minimum Inhibitory Concentration against K. pneumonia 4299 (K. pneumonia 4299) | Fractional inhibitory concentration of peptide/PMB, combination with Genta (P. aeruginosa ATCC 27853 [1]; first number in parenthesis) |
| --- | --- | --- | --- | --- | --- | --- | --- | --- | --- | --- | --- | --- | --- | --- | --- | --- |
| CCC[C@H](NC(=O)[C@H](CCCCN)NC(=O)[C@H](CCCNC(=N)N)NC(=O)CNC(=O)[C@@H](N)CCCNC(=N)N)C(=O)N[C@@H](CCC)C(=O)N[C@@H](CCCNC(=N)N)C(=O)N[C@@H](CCCNC(=N)N)C(=O)NCCCC[C@H](NC(=O)[C@H](CCCNC(=N)N)NC(=O)[C@H](CCCNC(=N)N)NC(=O)[C@H](CCC)NC(=O)[C@H](CCC)NC(=O)[C@H](CCCCN)NC(=O)[C@H](CCCNC(=N)N)NC(=O)CNC(=O)[C@@H](N)CCCNC(=N)N)C(=O)N[C@@H](CCCCN)C(=O)O [(RGRKNvalNvalRR)2KK] (I: H-RGRK[Nva][Nva]RRKK-OH / II: H-RGRK[Nva][Nva]RR; amide I:9-II:C; N-terminus and C-terminus assumed) | 0.13 | (0.25,0.25) | (0.5,0.5) | 0.5 | 0.25 | (0.25,0.25) | (0.5,0.5) | 0.25 | 0.13 | 10.9 µM | 14.9 ± 1.2 µM | 1.45 ± 0.01 µM | 10.9 µM | 5.5 µM | 21.8 µM | – |
| CCCC[C@H](NC(=O)[C@H](CCCCN)NC(=O)[C@H](CCCNC(=N)N)NC(=O)CNC(=O)[C@@H](N)CCCNC(=N)N)C(=O)N[C@@H](CCCC)C(=O)N[C@@H](CCCNC(=N)N)C(=O)N[C@@H](CCCNC(=N)N)C(=O)NCCCC[C@H](NC(=O)[C@H](CCCNC(=N)N)NC(=O)[C@H](CCCNC(=N)N)NC(=O)[C@H](CCCC)NC(=O)[C@H](CCCC)NC(=O)[C@H](CCCCN)NC(=O)[C@H](CCCNC(=N)N)NC(=O)CNC(=O)[C@@H](N)CCCNC(=N)N)C(=O)N[C@@H](CCCCN)C(=O)O [(RGRKNleuNleuRR)2KK] (I: H-RGRK[Nle][Nle]RRKK-OH / II: H-RGRK[Nle][Nle]RR; amide I:9-II:C; N-terminus and C-terminus assumed) | 0.01 | 0.5 | 0.5 | 0.5 | 0.06 | 0.06 | 0.03 | 0.25 | 0.5 | 2.7 µM | 16.4 ± 0.1 µM | 1.62 ± 0.02 µM | 2.7 µM | 2.7 µM | 5.3 µM | 0.5 |
